Source: patent publication US3939157A, “3-Benzyl-7-substituted acetamido-3-cephem-4-carboxylic acids and halogenated benzyl derivatives” (Beecham Group Limited, priority 1972, dated 1976)
≈ marks a conversion by molar mass, not a printed value.

Tests used:
Assay type in all cases: cell-based
[1] = system: B.subtilis; test: minimum inhibitory concentration (MIC) in agar, B.subtilis; conditions: Bacillus subtilis
Procedure: (§1) The minimum concentrations of this compound required to inhibit growth of five typical Gram-positive bacteria are tabulated below.
(§2) The minimum inhibitory concentrations (MIC) of the free acid (XIV) required to inhibit the growth of five typical Gram-positive bacteria are tabulated below:
(§3) t-Butyl 3-ethyl-7-(2-thienylacetamido)-3-cephem-4-carboxylate (23 mg) was treated with trifluoracetic acid at room temperature for 1 hour. The excess trifluoroacetic acid was distilled off azeotropically with dry benzene to give the free acid (XVII) as a gum (17 mg) .nu.max (CHCl3) 1770, 1705, 1680 cm^^-1 The minimum inhibitory concentrations of this compound required to inhibit the growth of five typical Gram-positive bacteria are tabulated below:
(§4) The cephem ester (XX) (28 mg) was dissolved in trifluoroacetic acid (0.8 ml) and allowed to stand at room temperature for 30 min.

[2] = system: Staph.aureus Oxford; test: minimum inhibitory concentration (MIC) in agar, Staph.aureus Oxford; conditions: Staphylococcus aureus
Procedure: as §1, §2, §3, §4

[3] = system: Staph.aureus Russell; test: minimum inhibitory concentration (MIC) in agar, Staph.aureus Russell; conditions: Staphylococcus aureus
Procedure: as §1, §2, §3, §4

[4] = system: β-haemolytic Strep.CN10; test: minimum inhibitory concentration (MIC) in agar, β-haemolytic Strep.CN10
Procedure: as §1, §2, §3, §4

[5] = system: Strep.pneumoniae CN33; test: minimum inhibitory concentration (MIC) in agar, Strep.pneumoniae CN33; conditions: Streptococcus pneumoniae
Procedure: as §1, §2, §3, §4

SMILES	MIC [1]	MIC [2]	MIC [3]	MIC [4]	MIC [5]
CCC1=C(C(=O)O)N2C(=O)C(NC(=O)Cc3cccs3)[C@H]2SC1 (stereo partly shown) [XVII, 3-ethyl-7-(2-thienylacetamido)-3-cephem-4-carboxylic acid]	2.5 µg/mL (≈ 7.09 µM)	2.5 µg/mL (≈ 7.09 µM)	2.5 µg/mL (≈ 7.09 µM)	2.5 µg/mL (≈ 7.09 µM)	2.5 µg/mL (≈ 7.09 µM)
O=C(Cc1cccs1)NC1C(=O)N2C(C(=O)O)=C(CC3CCCCO3)CS[C@H]12 (stereo partly shown) [XXII, 3-(2-tetrahydropyranylmethyl)-7-(2-thienylacetamido)-3-cephem-4-carboxylicacid]	0.5 µg/mL (≈ 1.18 µM)	0.25 µg/mL (≈ 0.592 µM)	10 µg/mL (≈ 23.7 µM)	0.25 µg/mL (≈ 0.592 µM)	0.25 µg/mL (≈ 0.592 µM)
O=C(Cc1cccs1)NC1C(=O)N2C(C(=O)O)=C(Cc3ccc(F)cc3)CS[C@H]12 (stereo partly shown) [XII, 3-p-fluorobenzyl-7-(2-thienylacetamido)-3-cephem-4-carboxylic acid]	0.5 µg/mL (≈ 1.16 µM)	0.25 µg/mL (≈ 0.578 µM)	10 µg/mL (≈ 23.1 µM)	0.25 µg/mL (≈ 0.578 µM)	0.25 µg/mL (≈ 0.578 µM)
O=C(Cc1cccs1)NC1C(=O)N2C(C(=O)O)=C(CCc3ccccc3)CS[C@H]12 (stereo partly drawn) [XXVI, 3-β-phenylethyl-7-(2-thienylacetamido) -3-cephem-4-carboxylic acid]	0.05 µg/mL (≈ 0.117 µM)	0.05 µg/mL (≈ 0.117 µM)	1.5 µg/mL (≈ 3.5 µM)	0.02 µg/mL (≈ 0.0467 µM)	0.15 µg/mL (≈ 0.35 µM)
N[C@@H](C(=O)NC1C(=O)N2C(C(=O)O)=C(Cc3ccccc3)CS[C@H]12)c1ccccc1 (stereo partly drawn) [VII; R = H, 3-Benzyl-7-[D-α-aminophenylacetamido]-3-cephem-4-carboxylic acid]	0.25 µg/mL (≈ 0.59 µM)	0.1 µg/mL (≈ 0.236 µM)	2.5 µg/mL (≈ 5.9 µM)	0.1 µg/mL (≈ 0.236 µM)	1 µg/mL (≈ 2.36 µM)
COC(=O)C1=C(Cc2ccccc2)CS[C@@H]2C(NC(=O)COc3ccccc3)C(=O)N12 (stereo partly shown) [II, Methyl 3-benzyl-7-phenoxyacetamido-3-cephem-4-carboxylate]	1.95 µg/mL (≈ 4.45 µM)	0.98 µg/mL (≈ 2.23 µM)	15.6 µg/mL (≈ 35.6 µM)	1.95 µg/mL (≈ 4.45 µM)	0.98 µg/mL (≈ 2.23 µM)
O=C(Cc1cccs1)NC1C(=O)N2C(C(=O)O)=C(Cc3ccccc3)CSC12 (stereo not shown) [VI]	0.2 µg/mL (≈ 0.482 µM)	0.05 µg/mL (≈ 0.121 µM)	10 µg/mL (≈ 24.1 µM)	0.2 µg/mL (≈ 0.482 µM)	0.2 µg/mL (≈ 0.482 µM)
O=C(O)CSCC(=O)NC1C(=O)N2C(C(=O)O)=C(Cc3ccc(F)cc3)CSC12 (stereo not shown) [XIV, 3-p-fluorobenzyl-7-carboxymethylthioacetamido-3-cephem-4-carboxylate]	100 µg/mL (≈ 227 µM)	5 µg/mL (≈ 11.4 µM)	50 µg/mL (≈ 114 µM)	25 µg/mL (≈ 56.8 µM)	25 µg/mL (≈ 56.8 µM)
